Tested on: platelets
Test: Platelet quality, platelets in 100% plasma, amotosalen 30-110 μM, 340 nm device ~7.2 J/cm^2
Description: Multiple donor platelet units in 10000 plasma (5 units, ˜278-391 mL) were pooled and split into 5 units of ˜285 mL each, to be used as an untreated control, or treated with amotosalen at different concentrations, with ultraviolet A illumination using the 340 nm device. Amotosalen was added to a concentration of 30, 60, 90 or 110 μM, then pre-illumination (pre-UV) samples were removed for analysis, and the remainder of the units subjected to illumination at ˜7.2 J/cm^2. Post-illumination (Post-UV) samples were then removed for post-treatment analysis.

Cc1oc2c(C)c3oc(=O)cc(C)c3cc2c1COCCN [S-59, 3-(2-aminoethoxymethyl)-2,5,9-trimethylfuro[3,2-g]chromen-7-one]
Glucose (30 μM, D3): 14.9 mmol/L
LDH (30 μM, D3): 14.5 LDH IU/10^11 platelets
Lactate (30 μM, D3): 6.9 mmol/L
Platelet counts (30 μM, D3): 1155 x10^3 cells/μL
Platelet lysis (30 μM, D3): 5.22%
pCO2 at 37° C. (30 μM, D3): 38.1 mm Hg
pH at 22° C. (30 μM, D3): 7.43
pH at 37° C. (30 μM, D3): 7.21
pO2 at 37° C. (30 μM, D3): 74.6 mm Hg
Glucose (30 μM, D7): 11.9 mmol/L
LDH (30 μM, D7): 17.4 LDH IU/10^11 platelets
Lactate (30 μM, D7): 12.1 mmol/L
Platelet counts (30 μM, D7): 1155 x10^3 cells/μL
Platelet lysis (30 μM, D7): 6.10%
pCO2 at 37° C. (30 μM, D7): 31.2 mm Hg
pH at 22° C. (30 μM, D7): 7.32
pH at 37° C. (30 μM, D7): 7.10
pO2 at 37° C. (30 μM, D7): 78.5 mm Hg
Glucose (30 μM, Post-UV): 15.9 mmol/L
LDH (30 μM, Post-UV): 15.0 LDH IU/10^11 platelets
Lactate (30 μM, Post-UV): 5.7 mmol/L
Platelet counts (30 μM, Post-UV): 1115 x10^3 cells/μL
Platelet lysis (30 μM, Post-UV): 5.31%
pCO2 at 37° C. (30 μM, Post-UV): 50.2 mm Hg
pH at 22° C. (30 μM, Post-UV): 7.37
pH at 37° C. (30 μM, Post-UV): 7.15
pO2 at 37° C. (30 μM, Post-UV): 13.9 mm Hg
Glucose (30 μM, Pre-UV): 16.0 mmol/L
LDH (30 μM, Pre-UV): 13.7 LDH IU/10^11 platelets
Lactate (30 μM, Pre-UV): 5.4 mmol/L
Platelet counts (30 μM, Pre-UV): 1200 x10^3 cells/μL
Platelet lysis (30 μM, Pre-UV): 4.92%
pCO2 at 37° C. (30 μM, Pre-UV): 52.4 mm Hg
pH at 22° C. (30 μM, Pre-UV): 7.36
pH at 37° C. (30 μM, Pre-UV): 7.14
pO2 at 37° C. (30 μM, Pre-UV): 28.6 mm Hg
Glucose (60 μM, D3): 15.0 mmol/L
LDH (60 μM, D3): 13.9 LDH IU/10^11 platelets
Lactate (60 μM, D3): 6.8 mmol/L
Platelet counts (60 μM, D3): 1152 x10^3 cells/μL
Platelet lysis (60 μM, D3): 5.15%
pCO2 at 37° C. (60 μM, D3): 38.1 mm Hg
pH at 22° C. (60 μM, D3): 7.43
pH at 37° C. (60 μM, D3): 7.20
pO2 at 37° C. (60 μM, D3): 65.8 mm Hg
Glucose (60 μM, D7): 11.6 mmol/L
LDH (60 μM, D7): 36.5 LDH IU/10^11 platelets
Lactate (60 μM, D7): 11.8 mmol/L
Platelet counts (60 μM, D7): 1041 x10^3 cells/μL
Platelet lysis (60 μM, D7): 11.82%
pCO2 at 37° C. (60 μM, D7): 31.2 mm Hg
pH at 22° C. (60 μM, D7): 7.32
pH at 37° C. (60 μM, D7): 7.09
pO2 at 37° C. (60 μM, D7): 78.0 mm Hg
Glucose (60 μM, Post-UV): 15.9 mmol/L
LDH (60 μM, Post-UV): 14.3 LDH IU/10^11 platelets
Lactate (60 μM, Post-UV): 5.6 mmol/L
Platelet counts (60 μM, Post-UV): 1117 x10^3 cells/μL
Platelet lysis (60 μM, Post-UV): 5.10%
pCO2 at 37° C. (60 μM, Post-UV): 49.2 mm Hg
pH at 22° C. (60 μM, Post-UV): 7.37
pH at 37° C. (60 μM, Post-UV): 7.15
pO2 at 37° C. (60 μM, Post-UV): 20.4 mm Hg
Glucose (60 μM, Pre-UV): 16.2 mmol/L
LDH (60 μM, Pre-UV): 13.6 LDH IU/10^11 platelets
Lactate (60 μM, Pre-UV): 5.4 mmol/L
Platelet counts (60 μM, Pre-UV): 1160 x10^3 cells/μL
Platelet lysis (60 μM, Pre-UV): 4.71%
pCO2 at 37° C. (60 μM, Pre-UV): 52.4 mm Hg
pH at 22° C. (60 μM, Pre-UV): 7.36
pH at 37° C. (60 μM, Pre-UV): 7.14
pO2 at 37° C. (60 μM, Pre-UV): 32.7 mm Hg
Glucose (90 μM, D3): 14.9 mmol/L
Lactate (90 μM, D3): 7.3 mmol/L
Platelet counts (90 μM, D3): 1157 x10^3 cells/μL
Platelet lysis (90 μM, D3): 4.88%
pCO2 at 37° C. (90 μM, D3): 40.3 mm Hg
pH at 22° C. (90 μM, D3): 7.39
pH at 37° C. (90 μM, D3): 7.17
pO2 at 37° C. (90 μM, D3): 82.2 mm Hg
Glucose (90 μM, D7): 10.6 mmol/L
Lactate (90 μM, D7): 13.6 mmol/L
Platelet counts (90 μM, D7): 1199 x10^3 cells/μL
Platelet lysis (90 μM, D7): 5.42%
pCO2 at 37° C. (90 μM, D7): 33.5 mm Hg
pH at 22° C. (90 μM, D7): 7.23
pH at 37° C. (90 μM, D7): 7.00
pO2 at 37° C. (90 μM, D7): 87.9 mm Hg
Glucose (90 μM, Post-UV): 15.9 mmol/L
Lactate (90 μM, Post-UV): 5.7 mmol/L
Platelet counts (90 μM, Post-UV): 1115 x10^3 cells/μL
Platelet lysis (90 μM, Post-UV): 5.13%
pCO2 at 37° C. (90 μM, Post-UV): 48.5 mm Hg
pH at 22° C. (90 μM, Post-UV): 7.37
pH at 37° C. (90 μM, Post-UV): 7.15
pO2 at 37° C. (90 μM, Post-UV): 24.1 mm Hg
Glucose (90 μM, Pre-UV): 15.9 mmol/L
Lactate (90 μM, Pre-UV): 5.3 mmol/L
Platelet counts (90 μM, Pre-UV): 1165 x10^3 cells/μL
Platelet lysis (90 μM, Pre-UV): 4.97%
pCO2 at 37° C. (90 μM, Pre-UV): 50.8 mm Hg
pH at 22° C. (90 μM, Pre-UV): 7.37
pH at 37° C. (90 μM, Pre-UV): 7.14
pO2 at 37° C. (90 μM, Pre-UV): 54.6 mm Hg
Glucose (110 μM, D3): 14.7 mmol/L
LDH (110 μM, D3): 17.0 LDH IU/10^11 platelets
Lactate (110 μM, D3): 7.3 mmol/L
Platelet counts (110 μM, D3): 1103 x10^3 cells/μL
Platelet lysis (110 μM, D3): 5.90%
pCO2 at 37° C. (110 μM, D3): 38.6 mm Hg
pH at 22° C. (110 μM, D3): 7.40
pH at 37° C. (110 μM, D3): 7.18
pO2 at 37° C. (110 μM, D3): 69.9 mm Hg
Glucose (110 μM, D7): 10.4 mmol/L
LDH (110 μM, D7): 16.0 LDH IU/10^11 platelets
Lactate (110 μM, D7): 13.8 mmol/L
Platelet counts (110 μM, D7): 1153 x10^3 cells/μL
Platelet lysis (110 μM, D7): 6.13%
pCO2 at 37° C. (110 μM, D7): 31.7 mm Hg
pH at 22° C. (110 μM, D7): 7.24
pH at 37° C. (110 μM, D7): 7.01
pO2 at 37° C. (110 μM, D7): 90.5 mm Hg
Glucose (110 μM, Post-UV): 16.0 mmol/L
LDH (110 μM, Post-UV): 12.0 LDH IU/10^11 platelets
Lactate (110 μM, Post-UV): 5.4 mmol/L
Platelet counts (110 μM, Post-UV): 1239 x10^3 cells/μL
Platelet lysis (110 μM, Post-UV): 4.63%
pCO2 at 37° C. (110 μM, Post-UV): 48.1 mm Hg
pH at 22° C. (110 μM, Post-UV): 7.37
pH at 37° C. (110 μM, Post-UV): 7.14
pO2 at 37° C. (110 μM, Post-UV): 189.7 mm Hg
Glucose (110 μM, Pre-UV): 15.9 mmol/L
LDH (110 μM, Pre-UV): 12.4 LDH IU/10^11 platelets
Lactate (110 μM, Pre-UV): 5.3 mmol/L
Platelet counts (110 μM, Pre-UV): 1209 x10^3 cells/μL
Platelet lysis (110 μM, Pre-UV): 4.61%
pCO2 at 37° C. (110 μM, Pre-UV): 51.8 mm Hg
pH at 22° C. (110 μM, Pre-UV): 7.36
pH at 37° C. (110 μM, Pre-UV): 7.13
pO2 at 37° C. (110 μM, Pre-UV): 88.6 mm Hg

Reference: patent US12214092B2, “Systems and methods for treating biological fluids” (Cerus Corporation, priority 2017, dated 2025)
